Assay results reported in PubChem BioAssay (NCI).
“And” between values parts separate entries of the source, which are not always exact repeats. Equal entries are not always repeated.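 Interpolation was linear, between the two tested concentrations surrounding the appropriate level; five concentrations were tested over 48 hours in 96-well plates. Abbreviation: GI50, concentration required for 50% inhibition of growth. TGI marks complete inhibition of growth.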

Assays:
Test in all cases: inhibition of tumour cell growth, NCI panel, 48 h
[1] = system: 786-0 renal
[2] = system: A498 renal
[3] = system: A549 NSCLC
[4] = system: ACHN renal
[5] = system: BT-549 breast
[6] = system: CAKI-1 renal
[7] = system: CCRF-CEM leukemia
[8] = system: COLO 205 colon
[9] = system: DU-145 prostate
[10] = system: EKVX NSCLC
[11] = system: HCC-2998 colon
[12] = system: HCT-116 colon
[13] = system: HCT-15 colon
[14] = system: HL-60(TB) leukemia
[15] = system: HOP-62 NSCLC
[16] = system: HOP-92 NSCLC
[17] = system: HS 578T breast
[18] = system: HT29 colon
[19] = system: IGROV1 ovarian
[20] = system: K-562 leukemia
[21] = system: KM12 colon
[22] = system: LOX IMVI melanoma
[23] = system: M14 melanoma
[24] = system: MALME-3M melanoma
[25] = system: MCF7 breast
[26] = system: MDA-MB-231 breast
[27] = system: MDA-MB-435
[28] = system: MOLT-4 leukemia
[29] = system: NCI-H226 lung
[30] = system: NCI-H23 lung
[31] = system: NCI-H460 lung
[32] = system: NCI-H522 lung
[33] = system: NCI/ADR-RES ovarian
[34] = system: OVCAR-3 ovarian
[35] = system: OVCAR-4 ovarian
[36] = system: OVCAR-5 ovarian
[37] = system: OVCAR-8 ovarian
[38] = system: PC-3 prostate
[39] = system: RPMI-8226 leukemia
[40] = system: RXF 393 renal
[41] = system: SF-268 CNS
[42] = system: SF-295 CNS
[43] = system: SF-539 CNS
[44] = system: SK-MEL-2 melanoma
[45] = system: SK-MEL-28 melanoma
[46] = system: SK-MEL-5 melanoma
[47] = system: SK-OV-3 ovarian
[48] = system: SN12C renal
[49] = system: SNB-19 CNS
[50] = system: SNB-75 CNS
[51] = system: SR leukemia
[52] = system: SW-620 colon
[53] = system: T-47D breast
[54] = system: TK-10 renal
[55] = system: U251 CNS
[56] = system: UACC-257 melanoma
[57] = system: UACC-62 melanoma
[58] = system: UO-31 renal

Which GI50 [1] does the source give for `COc1cc([C@@H]2c3cc4c(cc3[C@H](O)[C@H]3COC(=O)[C@@H]23)OCO4)cc(OC)c1OC` here?
The GI50 was 504 nM and 332 nM.

What about the TGI [1] of the same compound?
The TGI was > 100000 nM.

And the GI50 [2]?
Its GI50 is 239 nM and 451 nM.

And the GI50 [3]?
Its GI50 is 732 nM and 333 nM.

And the TGI [3]?
Its TGI is > 100000 nM.

What about the GI50 [4] of the same compound?
The GI50 was 568 nM and 1410 nM.

And the TGI [4]?
The TGI was > 100000 nM.

And the GI50 [5]?
The GI50 was 632 nM and 259 nM.

What about the TGI [5] of the same compound?
The TGI was > 42500 nM.

And the GI50 [6]?
The GI50 was 448 nM and 258 nM.

What about the TGI [6] of the same compound?
Its TGI is > 35800 nM.

What about the GI50 [7] of the same compound?
The GI50 was 374 nM and 302 nM.

What about the TGI [7] of the same compound?
The TGI was > 100000 nM.

What about the GI50 [8] of the same compound?
The GI50 was 347 nM and 132 nM.

What about the TGI [8] of the same compound?
The TGI was 1300 nM and 431 nM.

And the GI50 [9]?
Its GI50 is 544 nM and 237 nM.

And the GI50 [10]?
Its GI50 is 434 nM.

What about the TGI [10] of the same compound?
The TGI was > 100000 nM.

What about the GI50 [11] of the same compound?
Its GI50 is 948 nM and 159 nM.

And the TGI [11]?
Its TGI is > 6160 nM and 647 nM.

And the GI50 [12]?
Its GI50 is 406 nM and 185 nM.

What about the TGI [12] of the same compound?
Its TGI is > 10000 nM.

What about the GI50 [13] of the same compound?
Its GI50 is 415 nM and 327 nM.

What about the TGI [13] of the same compound?
The TGI was > 100000 nM.

And the GI50 [14]?
Its GI50 is 293 nM and 454 nM.

What about the TGI [14] of the same compound?
Its TGI is > 2810 nM and 64100 nM.

What about the GI50 [15] of the same compound?
Its GI50 is 533 nM and 226 nM.

And the TGI [15]?
The TGI was > 100000 nM.

And the TGI [16]?
The TGI was > 88600 nM.

What about the GI50 [17] of the same compound?
The GI50 was 298 nM and 293 nM.

And the TGI [17]?
The TGI was > 5830 nM.

What about the GI50 [18] of the same compound?
The GI50 was 360 nM and 104 nM.

What about the TGI [18] of the same compound?
The TGI was > 3940 nM and 1060 nM.

What about the GI50 [19] of the same compound?
The GI50 was 423 nM and 240 nM.

And the TGI [19]?
The TGI was > 100000 nM.

What about the GI50 [20] of the same compound?
The GI50 was 349 nM and 405 nM.

What about the TGI [20] of the same compound?
The TGI was > 100000 nM.

And the GI50 [21]?
Its GI50 is 343 nM and 158 nM.

And the TGI [21]?
Its TGI is > 8500 nM and 967 nM.

And the GI50 [22]?
The GI50 was 460 nM and 623 nM.

What about the TGI [22] of the same compound?
The TGI was > 100000 nM.

What about the GI50 [23] of the same compound?
Its GI50 is 355 nM and 135 nM.

And the TGI [23]?
The TGI was > 100000 nM.

What about the GI50 [24] of the same compound?
The GI50 was 1110 nM and 169 nM.

What about the TGI [24] of the same compound?
Its TGI is > 100000 nM.

And the GI50 [25]?
The GI50 was 321 nM and 61.2 nM.

What about the TGI [25] of the same compound?
Its TGI is > 100000 nM.

What about the GI50 [26] of the same compound?
Its GI50 is 776 nM and 454 nM.

And the TGI [26]?
The TGI was > 100000 nM.

And the GI50 [27]?
Its GI50 is 124 nM and 31.5 nM.

And the TGI [27]?
Its TGI is 377 nM and 132 nM.

What about the GI50 [28] of the same compound?
Its GI50 is 587 nM and 845 nM.

And the TGI [28]?
Its TGI is > 100000 nM.

What about the GI50 [29] of the same compound?
Its GI50 is 754 nM and 602 nM.

And the TGI [29]?
The TGI was > 100000 nM.

What about the GI50 [30] of the same compound?
Its GI50 is 780 nM and 239 nM.

And the TGI [30]?
The TGI was > 100000 nM.

And the GI50 [31]?
The GI50 was 371 nM and 138 nM.

What about the TGI [31] of the same compound?
The TGI was > 10000 nM and 3070 nM.

What about the GI50 [32] of the same compound?
Its GI50 is 244 nM and 281 nM.

And the GI50 [33]?
The GI50 was 884 nM and 194 nM.

What about the TGI [33] of the same compound?
Its TGI is > 10000 nM.

What about the GI50 [34] of the same compound?
Its GI50 is 303 nM and 159 nM.

What about the TGI [34] of the same compound?
The TGI was 1530 nM and 371 nM.

What about the GI50 [35] of the same compound?
The GI50 was 1030 nM and 4920 nM.

And the TGI [35]?
The TGI was > 100000 nM.

What about the GI50 [36] of the same compound?
The GI50 was 721 nM.

What about the TGI [36] of the same compound?
Its TGI is > 100000 nM.

And the GI50 [37]?
Its GI50 is 707 nM and 397 nM.

And the TGI [37]?
The TGI was > 100000 nM.

And the GI50 [38]?
The GI50 was 362 nM and 510 nM.

What about the TGI [38] of the same compound?
The TGI was > 100000 nM.

And the GI50 [39]?
Its GI50 is 566 nM and 300 nM.

What about the TGI [39] of the same compound?
The TGI was > 10000 nM and 1370 nM.

And the GI50 [40]?
The GI50 was 211 nM and 316 nM.

And the GI50 [41]?
Its GI50 is 722 nM and 445 nM.

What about the TGI [41] of the same compound?
Its TGI is > 100000 nM.

What about the GI50 [42] of the same compound?
Its GI50 is 285 nM and 104 nM.

What about the TGI [42] of the same compound?
The TGI was 1610 nM.

And the GI50 [43]?
Its GI50 is 256 nM and 94 nM.

What about the TGI [43] of the same compound?
The TGI was 876 nM and 400 nM.

And the GI50 [44]?
Its GI50 is 445 nM and 584 nM.

And the TGI [44]?
Its TGI is > 100000 nM.

What about the GI50 [45] of the same compound?
The GI50 was 561 nM and 374 nM.

And the TGI [45]?
The TGI was > 100000 nM.

And the GI50 [46]?
The GI50 was 351 nM and 35.5 nM.

And the TGI [46]?
Its TGI is 1800 nM and 254 nM.

And the GI50 [47]?
Its GI50 is 529 nM and 301 nM.

And the GI50 [48]?
Its GI50 is 677 nM and 400 nM.

What about the TGI [48] of the same compound?
The TGI was > 100000 nM.

What about the GI50 [49] of the same compound?
Its GI50 is 462 nM and 231 nM.

And the TGI [49]?
Its TGI is > 100000 nM.

What about the GI50 [50] of the same compound?
The GI50 was 256 nM and 45.5 nM.

And the TGI [50]?
Its TGI is > 100000 nM.

And the GI50 [51]?
The GI50 was 222 nM.

And the TGI [51]?
The TGI was > 10000 nM.

What about the GI50 [52] of the same compound?
Its GI50 is 409 nM and 219 nM.

And the TGI [52]?
The TGI was > 100000 nM.

And the GI50 [53]?
Its GI50 is 405 nM.

And the TGI [53]?
The TGI was 4640 nM.

What about the GI50 [54] of the same compound?
Its GI50 is 743 nM.

And the TGI [54]?
Its TGI is 9860 nM.

What about the GI50 [55] of the same compound?
The GI50 was 460 nM and 382 nM.

And the TGI [55]?
The TGI was > 100000 nM.

What about the GI50 [56] of the same compound?
The GI50 was > 100000 nM.

And the TGI [56]?
Its TGI is > 100000 nM.

And the GI50 [57]?
The GI50 was 407 nM and 153 nM.

What about the TGI [57] of the same compound?
Its TGI is > 100000 nM.

And the GI50 [58]?
Its GI50 is 480 nM and 602 nM.

What about the TGI [58] of the same compound?
The TGI was > 100000 nM.
